In patent US7927821B2, “Methods of screening for compounds which bind G protein-coupled receptors” (Takeda Pharmaceutical Company Limited, priority 2004, dated 2011):

Legend:
TGR25 = TGR25 (Homo sapiens, UniProt Q86Y34); assay: SRE-luciferase reporter assay in HeLa cells transiently expressing TGR25; format: cell-based; details: for luciferase activity in the TGR25-expressed cells (in words): 20 μM
HL-60 = assay: Differentiation of HL-60 cell line into neutrophil-like cells (CD11b/Mac-1, flow cytometry); format: cell-based, human; details: co-presence of 1.25% DMSO and AM251 (10 μM), 4 days
Text: Human leukocyte cell line (human acute promyelocytic leukemia cell-derived) HL-60 is known to differentiate into neutrophil-like cells by treatment with DMSO (dimethyl sulfoxide) (Blood, 70, 1233-1244 (1987)). Gene expression analysis based on EXAMPLE 3 confirmed the expression of the TGR25 in the cell line. Accordingly, the action of AM251 as an agonist of the TGR25 for differentiation of the cells was examined.
After HL-60 cells in the growth phase were suspended in 10% fetal calf serum-containing RPMI 1640 medium, the cells were plated on a 12-well tissue culture plate (Becton Dickinson Japan) in 5×10^4 cells/well. […] Degree of cell differentiation was analyzed using a fluorescence-labeled antibody (PE-anti-human CD11b/Mac-1, Becton Dickinson Japan) on a flow cytometry (BD FACSVantage™, Becton Dickinson Japan), in terms of the expression level of a differentiation marker or cell surface antigen CD11b/Mac-1 as an indicator.

[1] = tested on: pAKKO-111H-transfected cells (control); assay: SRE-luciferase reporter assay in pAKKO-111H-transfected HeLa cells for control (no receptor); details: 2 μM

Chain of TGR25 (Q86Y34 21-549): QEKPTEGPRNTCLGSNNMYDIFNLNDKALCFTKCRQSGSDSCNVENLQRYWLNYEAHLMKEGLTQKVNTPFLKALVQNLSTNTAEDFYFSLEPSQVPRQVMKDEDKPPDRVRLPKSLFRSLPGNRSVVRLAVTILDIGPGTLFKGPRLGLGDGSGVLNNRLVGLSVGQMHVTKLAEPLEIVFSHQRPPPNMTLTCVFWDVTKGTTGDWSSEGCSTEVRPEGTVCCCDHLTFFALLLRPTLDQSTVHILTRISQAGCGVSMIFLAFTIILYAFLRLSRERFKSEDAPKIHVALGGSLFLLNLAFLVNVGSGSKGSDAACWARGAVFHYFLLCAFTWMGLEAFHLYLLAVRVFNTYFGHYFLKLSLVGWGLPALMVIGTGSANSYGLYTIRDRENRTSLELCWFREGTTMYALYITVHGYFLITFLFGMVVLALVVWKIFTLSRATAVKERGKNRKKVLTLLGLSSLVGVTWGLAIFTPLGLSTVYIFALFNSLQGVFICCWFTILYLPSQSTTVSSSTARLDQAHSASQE

Increase of Luciferase Activity in TGR25-Expressed Cells by AM281 (cps): TGR25 (TGR25; AM281 20 μM, 4 hours, HeLa cells, 0 μM gave 6113) | Structure (SMILES) | luciferase activity in the TGR25-expressed cells (in words) (TGR25) | Increase of Luciferase Activity in TGR25-Expressed Cells by DH97 (cps): TGR25 (TGR25; DH97 20 μM, 4 hours, HeLa cells, 0 μM gave 2642) | luciferase activity in the TGR25 expression cells (in words) (TGR25; 2 μM) | Increased luciferase activity (cps) in the TGR25 expression cells by AM251: TGR25 (TGR25; AM251 2 μM, 4 hours, HeLa cells, 0 μM gave 7527) | differentiation of HL-60 into neutrophil-like cells (HL-60) | expression level of CD11b/Mac-1 (differentiation marker) (HL-60; versus DMSO alone) | luciferase activity in the pAKKO-111H-transfected cells for control (in words) [1]
9279 cps | Cc1c(C(=O)NN2CCOCC2)nn(-c2ccc(Cl)cc2Cl)c1-c1ccc(I)cc1 [AM281, 1-(2,4-dichlorophenyl)-5-(4-iodophenyl)-4-methyl-N-morpholin-4-yl-1H-pyrazole-3-carboxamide] | the luciferase activity increased | – | – | – | – | – | –
– | CCCCC(=O)NCCc1c(Cc2ccccc2)[nH]c2ccccc12 [DH97, N-[2-(2-benzyl-1H-indol-3-yl)ethyl]pentanamide] | the luciferase activity increased | 5674 cps | – | – | – | – | –
– | Cc1c(C(=O)NN2CCCCC2)nn(-c2ccc(Cl)cc2Cl)c1-c1ccc(I)cc1 [AM251, 1-(2,4-dichlorophenyl)-5-(4-iodophenyl)-4-methyl-N-piperidin-1-yl-1H-pyrazole-3-carboxamide] | – | – | increased luciferase activity was detected | 17897 cps | acts promotively | further increased | any significant increase in the activity was not detected
